From PubChem BioAssay AID2423 (Broad Institute, 2010)
Records with an inconclusive call do not appear. The source made the active and inactive calls. How the calls were made is not given here.

tested on: C. albicans CaCi-8 + fluconazole, Alamar Blue growth, 48 h; test: resistant C. albicans growth inhibition with fluconazole, dose response, CaCi-8 strain, Alamar Blue fluorescence (AID 2423)

| Structure (SMILES) | EC50 |
| --- | --- |
| CC1(C)CC(N2CCCC2)=CC(=[N+]2CCCC2)C1 | 6.31 µM |
| Cc1c(Nc2scc(-c3ccccc3)[n+]2-c2ccccc2)c(=O)n(-c2ccccc2)n1C | 0.225 µM |
| Cc1ccc(Sc2ncccc2C(=O)NCc2cc([N+](=O)[O-])ccc2O)c(C)c1 | > 15 µM (inactive) |
| Cc1ccnc(NC(c2cccnc2)c2ccc3cccnc3c2O)c1 (stereo not given) | 13.1 µM |
| Oc1ccc(CN2CCCCC2)c2cccnc12 | 16.1 µM |
| Cc1cc(NC(=O)COC(=O)[C@@H](NS(=O)(=O)c2ccc(Br)cc2)C(C)C)no1 | > 15 µM (inactive) |
| Cc1cccc(C)c1OCC(=O)NNC(=S)NC(=O)C1CC1 | 0.95 µM |
| COc1cccc(/C=N/Nc2cc(C)nc(-c3ccccc3O)n2)c1O | < 0.12 µM |
| Cc1cccc(C(=O)O/N=C/c2c(N3CCOCC3)n(C)c3ccccc23)c1 | 0.799 µM |
| O=C(O)c1ccc(CN2C(=O)CSC2=S)cc1 | > 15 µM (inactive) |
| COC(=O)c1c(C(=O)OC)c(-c2ccc(Cl)c(Cl)c2)n2c1CCC2 | 8.98 µM |
| OCCN1CCN(C(=S)NC2CCCC2)CC1 | > 16 µM (inactive) |
| Cc1ccc(S(=O)(=O)NNC(=O)c2ccc(NC(=O)C3CC3)cc2)cc1 | > 15 µM (inactive) |
| NS(=O)(=O)c1ccc(N=Nc2ccc(O)c3ncccc23)cc1 | 1.38 µM |
| CC(C)=CCc1c2c(c(O)c3c(=O)c4c(oc13)-c1cc(O)c(O)cc1OC4C=C(C)C)C=CC(C)(C)O2 (stereo not given) | 13 µM |
| CC(=O)NC(c1ccc(C)cc1)c1cc([N+](=O)[O-])c2cccnc2c1O (stereo not given) | 0.201 µM |
| CCN=c1scc(C)n1/N=C/c1ccc(O)c(O)c1O | > 15 µM (inactive) |
| O=C(NCC1CCCO1)c1cc2n(n1)C(C(F)(F)F)CC(c1ccc(Br)cc1)N2 (stereo not given) | 7.57 µM |
| CN(C)S(=O)(=O)c1cccc(NC(=S)N/N=C/c2ccc(O)c(O)c2O)c1 | 2.67 µM |
| O=C(NNC(=O)c1ccccc1O)c1ccc(-c2ccc([N+](=O)[O-])cc2)o1 | > 15 µM (inactive) |
| COC(=O)c1c(-c2cccs2)csc1NC(=O)c1cccnc1 | 1.29 µM |
| CC(=O)Oc1ccc2c(=O)c(-c3nc4ccccc4s3)coc2c1 | 3.52 µM |
| COc1ccc(C2N=C(Nc3ccc(C)cc3)Nc3nc(C)cc(=O)n32)cc1 (stereo not given) | > 16 µM (inactive) |
| Cc1cc(C)c(-c2cc(NC(=O)COC(=O)c3ccc(C#N)cc3)n(-c3ccccc3)n2)cc1C | 0.397 µM |
| Cc1cc(C)cc(OCC(=O)NNC(=S)NC(=O)C2CC2)c1 | 0.646 µM |
| CC(=O)NC(CC(=O)NNC(=O)c1cc2ccccc2cc1O)c1ccccc1 (stereo not given) | 16 µM |
| CCOc1cccc(-c2cc(-c3n[nH]c(=S)n3CC)c3ccccc3n2)c1 | 4 µM |
| c1ccc(CN2CCc3nc4ccccc4cc3C2)cc1 | > 16 µM (inactive) |

| Structure (SMILES) | EC50 |
| --- | --- |
| O=C(CC1CC2CCC1C2)Nc1nc(-c2ccccn2)cs1 (stereo not given) | 0.641 µM |
| C/C(=N\N1C(=O)CSC1=S)c1ccc(Br)cc1 | 11.9 µM |
| C=CCn1c(O)c(N=NC(=S)Nc2ccc(OC)cc2)c2ccccc21 | 7.7 µM |
| COc1cc(OC)c2cc(C(=O)N/N=C/c3ccccc3O)[nH]c2c1 | 1.24 µM |
| O=C(CCl)N1c2ccccc2CCc2ccccc21 | 1.01 µM |
| O=C(N/N=C/c1c(O)n(CCC2=CCCCC2)c(=S)[nH]c1=O)c1ccccc1 | 10.7 µM |
| COc1ccc(C(=O)NNC(=S)NC(=O)c2cccc([N+](=O)[O-])c2)cc1 | 1.8 µM |
| O=C1c2ccccc2NC(c2cn[nH]c2-c2ccc(Cl)cc2)N1O (stereo not given) | > 16 µM (inactive) |
| COc1ccc(NC(=O)C(=O)NNC(=O)c2ccc(Cl)cc2Cl)cc1 | 0.888 µM |
| CC1(O)CC(c2ccc(Cl)cc2)=NN1C(=O)c1ccc([N+](=O)[O-])cc1 (stereo not given) | 3.21 µM |
| CNC(=O)COC(=O)c1c2c(nc3ccccc13)CCC2 | > 16 µM (inactive) |
| CCCCOc1ccc(-c2cc(C(=O)NNC(=S)NCC)c3ccccc3n2)cc1 | 1.06 µM |
| O=c1c2ccccc2nc(-c2ccc(Cl)cc2Cl)n1O | 1.02 µM |
| CCN(CC)c1nc(N)c2c(N)nc3c(c2c1C#N)CC(c1ccccc1)O3 (stereo not given) | > 16 µM (inactive) |
| O=C(Oc1ccc(Cl)c2cccnc12)c1cccc([N+](=O)[O-])c1 | 12.3 µM |
| CC(c1ccccc1)N1CCn2c(nc3cc(NS(C)(=O)=O)ccc32)C1 (stereo not given) | > 16 µM (inactive) |
| CC1(C)CC(N2CCN(Cc3ccccc3)CC2)=CC(=[N+]2CCCCC2)C1 | 3.35 µM |
| O=C(Nc1sc2c(c1C(=O)c1ccc(Cl)cc1)CCCC2)c1cccnc1 | 0.615 µM |
| O=C(Nc1nnc(-c2ccco2)o1)c1cccc(Cl)c1 | 0.859 µM |
| CCN(CC)S(=O)(=O)c1ccc(N/N=C/c2ccc(O)cc2O)nc1 | 0.644 µM |
| Nc1nnnn1/N=C/c1cccc(Oc2ccccc2)c1 | 3.45 µM |
| CC[n+]1c(C=C2C=C(C)OC(C)=C2)sc2ccccc21 | 2.08 µM |
| CCOC(=O)N1CCN(Cc2cc(Cl)c3cccnc3c2O)CC1 | 1.91 µM |
| CCc1nnc(NC(=O)CN2CCN(c3nc(-c4ccccc4)cs3)CC2)s1 | 0.371 µM |
| O=C(N/N=C(\c1ccccc1)c1ccccn1)c1cccc([N+](=O)[O-])c1 | 5.31 µM |
| O=[N+]([O-])c1ccc(C2CCCC/C2=N/OCc2ccc(F)cc2)c([N+](=O)[O-])c1 (stereo not given) | > 16 µM (inactive) |
| CCOC(=O)c1c(NC(=O)C2Cc3ccccc3C(=O)O2)sc2c1CCCC2 (stereo not given) | > 16 µM (inactive) |
